As a reminder, the IC50 is the midpoint of a concentration-inhibition curve.

Where two headings read alike, the source gives them in different places.

For the assay, the system named is phosphorylation of AKT on Ser473 (PI3K pathway) in T-47D (heterozygous PIK3CA H1047R) cell line. The assay can be described thus: PI3K pathway activation assay (pAKT Ser473 HTRF), T-47D cells. The note with it: read-out: T47D pAKT IC50. Type of assay: cell-based. On the procedure: The inhibitory activity of the compounds of the disclosure was evaluated by measuring phosphorylation of AKT on Ser473 as a readout of the PI3K pathway using HTRF (CisBio catalog number: 64AKSPE). These studies were conducted in the T-47D (heterozygous PIK3CA H1047R) and SKBR3 (PIK3CA WT) cell lines. Cells were maintained in a 37° C. incubator at 5% CO2 in the following media: T-47D: RPMI 1640, ATCC© Modification (Gibco, A10491-01) supplemented with 10% v/v FBS (Gibco, 26140-079), 1% penicillin streptomycin (Gibco, 15140-122), and 7.4 ug/mL insulin (MilliporeSigma, I9278); SKBR3: McCoy's 5a (Modified) Medium (Gibco, 16600-082) supplemented with 10% v/v FBS (Gibco, 26140-079). Cells were seeded in 384-well plates at a density of 4,000 cells/well. Compounds dissolved in DMSO were added using a digital dispense (D300E, Tecan) 10-point serial dilution. After two hours of treatment, cells were lysed for thirty minutes and then incubated with detection reagents per HTRF kit material and manufacturer's instructions. Fluorescence signal was measured with a multimode plate reader (Envision 2105, Perkin Elmer). Fluorescent signal was normalized to background and DMSO controls to obtain percent inhibition/activity for each compound.
A general note: In TR-FRET formats the signal depends on donor and acceptor labels being close together.

Setting [1] is: T-47D (heterozygous PIK3CA H1047R) cells, two hours of treatment, pAKT Ser473 HTRF.
Where [2] appears, read: Homo sapiens, T47D, 2 h, T-47D (heterozygous PIK3CA H1047R) cells, two hours of treatment, pAKT Ser473 HTRF.

For the molecule `Cc1cc([C@@H](C)Nc2ccc(Cl)nc2C(=O)O)nc(N2C(=O)OC[C@@H]2Cc2ccn3nccc3c2)c1` [Example 40, 6-Chloro-3-(((R)-1-(4-methyl-6-((S)-2-oxo-4-(pyrazolo[1,5-α]pyridin-5-ylmethyl)oxazolidin-3-yl)pyridin-2-yl)ethyl)amino)picolinic acid], the IC50 under setting [1] was < 100 nM.

Take `Cc1cc(C(C)Nc2ccc(C)nc2C(=O)O)nc(N2C(=O)OC[C@@H]2Cc2ccccc2)c1` (single isomer, unassigned) [Example 14]: the 50% inhibitory concentration (IC50) under setting [2] is 100 to 1000 nM.

For the molecule `CC(Nc1ccc(F)nc1C(=O)O)c1cc(Cl)cc(N2C(=O)OC[C@@H]2Cc2ccccc2)c1` (stereo partly drawn) [Example 7, 3-((1-(3-((S)-4-Benzyl-2-oxooxazolidin-3-yl)-5-chlorophenyl)ethyl)amino)-6-fluoropicolinic acid], the half-inhibitory concentration (IC50) under setting [2] lay within 100 to 1000 nM.

On to `Cc1cc([C@@H](C)Nc2ccc(Cl)nc2C(=O)O)nc(N2C(=O)OC[C@@H]2Cc2cn(C)c3ccccc23)c1` [Example 37, 6-Chloro-3-(((R)-1-(4-methyl-6-((S)-4-((1-methyl-1H-indol-3-yl)methyl)-2-oxooxazolidin-3-yl)pyridin-2-yl)ethyl)amino)picolinic acid], for which the IC50 under setting [2] was < 100 nM.

`Cc1cc([C@@H](C)Nc2ccc(Cl)nc2C(=O)O)nc(N2C(=O)OC[C@@H]2Cc2cnn3ccccc23)c1` [Example 46, 6-Chloro-3-(((R)-1-(4-methyl-6-((S)-2-oxo-4-(pyrazolo[1,5-α]pyridin-3-ylmethyl)oxazolidin-3-yl)pyridin-2-yl)ethyl)amino)picolinic acid]: the IC50 under setting [1] is < 100 nM.

As for `Cc1cc(C(C)Nc2ccc(Cl)nc2C(=O)O)cc(N2C(=O)OC[C@@H]2Cc2ccccc2)c1` (stereo partly drawn) [Example 1, 3-((1-(3-((S)-4-Benzyl-2-oxooxazolidin-3-yl)-5-methylphenyl)ethyl)amino)-6-chloropicolinic acid], the IC50 under setting [2] was in the range of 100 to 1000 nM.

With `Cc1cc([C@@H](C)Nc2ccc(Cl)nc2C(=O)O)nc(N2C(=O)OC[C@@H]2Cc2ccc3c(cnn3C)c2)c1` [Example 42, 6-Chloro-3-(((R)-1-(4-methyl-6-((S)-4-((1-methyl-1H-indazol-5-yl)methyl)-2-oxooxazolidin-3-yl)pyridin-2-yl)ethyl)amino)picolinic acid], the IC50 under setting [2] was < 100 nM.

For `Cc1cc([C@@H](C)Nc2ccc(Cl)nc2C(=O)O)nc(N2C(=O)OC[C@@H]2Cc2ccn(C)n2)c1` [Example 33, 6-Chloro-3-(((R)-1-(4-methyl-6-((S)-4-((1-methyl-1H-pyrazol-3-yl)methyl)-2-oxooxazolidin-3-yl)pyridin-2-yl)ethyl)amino)picolinic acid], under setting [2], the IC50 fell in the range of 100 to 1000 nM.

`Cc1cc([C@@H](C)Nc2ccc(Cl)nc2C(=O)O)nc(N2C(=O)OC[C@@H]2Cc2ccc3nn(C)cc3c2)c1` [Example 43, 6-Chloro-3-(((R)-1-(4-methyl-6-((S)-4-((2-methyl-2H-indazol-5-yl)methyl)-2-oxooxazolidin-3-yl)pyridin-2-yl)ethyl)amino)picolinic acid]: the IC50 under setting [2] is < 100 nM.

For the molecule `Cc1cc([C@@H](C)Nc2ccc(Cl)nc2C(=O)O)nc(N2C(=O)OC[C@@H]2CC2CCC2)c1` [Example 47, 6-Chloro-3-(((R)-1-(6-((S)-4-(cyclobutylmethyl)-2-oxooxazolidin-3-yl)-4-methylpyridin-2-yl)ethyl)amino)picolinic acid], under setting [2], the IC50 was < 100 nM.

Consider `Cc1cc([C@@H](C)Nc2ccc(Cl)nc2C(=O)O)nc(N2C(=O)COC[C@@H]2Cc2ccccc2)c1` [Example 57, 3-(((R)-1-(6-((S)-3-Benzyl-5-oxomorpholino)-4-methylpyridin-2-yl)ethyl)amino)-6-chloropicolinic acid], for which, under setting [2], the IC50 fell in the range of 100 to 1000 nM.

As for `Cc1cc([C@@H](C)Nc2ccc(Cl)nc2C(=O)O)nc(N2C(=O)OC[C@@H]2Cc2ccc(C(=O)OC(C)(C)C)cc2)c1` [Example 25, 3-(((R)-1-(6-((S)-4-(4-(tert-Butoxycarbonyl)benzyl)-2-oxooxazolidin-3-yl)-4-methylpyridin-2-yl)ethyl)amino)-6-chloropicolinic acid], the IC50 under setting [2] lay in the range of 100 to 1000 nM.

Take `Cc1cc([C@@H](C)Nc2ccc(Cl)nc2C(=O)O)nc(N2C(=O)OC[C@@H]2Cc2ccncc2)c1` [Example 28, 6-Chloro-3-(((R)-1-(4-methyl-6-((S)-2-oxo-4-(pyridin-4-ylmethyl)oxazolidin-3-yl)pyridin-2-yl)ethyl)amino)picolinic acid]: the IC50 under setting [2] lay within 100 to 1000 nM.

In the case of `Cc1cc(C(C)Nc2ccc(F)nc2C(=O)O)cc(N2C(=O)OC[C@@H]2Cc2ccccc2)c1` (stereo partly drawn) [Example 3, 3-((1-(3-((S)-4-Benzyl-2-oxooxazolidin-3-yl)-5-methylphenyl)ethyl)amino)-6-fluoropicolinic acid], the IC50 under setting [2] was in the range of 100 to 1000 nM.

Take `Cc1cc([C@@H](C)Nc2ccc(Cl)nc2C(=O)O)nc(N2C(=O)OC[C@@H]2Cc2ccccc2Br)c1` [Example 22, 3-(((R)-1-(6-((S)-4-(2-Bromobenzyl)-2-oxooxazolidin-3-yl)-4-methylpyridin-2-yl)ethyl)amino)-6-chloropicolinic acid]: under “Homo sapiens, T47D, 2 h”, the IC50 was in the range of 100 to 1000 nM.

As to `CC(Nc1ccc(F)nc1C(=O)O)c1cc(N2C(=O)OC[C@@H]2Cc2ccccc2)cc(C(F)(F)F)c1` (stereo partly drawn) [Example 8, 3-((1-(3-((S)-4-Benzyl-2-oxooxazolidin-3-yl)-5-(trifluoromethyl)phenyl)ethyl)amino)-6-fluoropicolinic acid], the IC50 under setting [2] lay within 1000 to 10000 nM.

In the case of `Cc1cc([C@@H](C)Nc2ccc(Cl)nc2C(=O)O)nc(N2C(=O)OC[C@@H]2Cc2c[nH]c3ccccc23)c1` [Example 50, 3-(((R)-1-(6-((S)-4-((1H-Indol-3-yl)methyl)-2-oxooxazolidin-3-yl)-4-methylpyridin-2-yl)ethyl)amino)-6-chloropicolinic acid], under setting [2], the IC50 lay in the range of 100 to 1000 nM.

On to `Cc1cc([C@@H](C)Nc2ccc(Cl)nc2C(=O)O)nc(N2C(=O)OC[C@@H]2Cc2ccnn2C)c1` [Example 34, 6-Chloro-3-(((R)-1-(4-methyl-6-((S)-4-((1-methyl-1H-pyrazol-5-yl)methyl)-2-oxooxazolidin-3-yl)pyridin-2-yl)ethyl)amino)picolinic acid], for which the IC50 under setting [2] fell in the range of 100 to 1000 nM.

With `CON(C)C(=O)c1ccc(C[C@H]2COC(=O)N2c2cc(C)cc([C@@H](C)Nc3ccc(Cl)nc3C(=O)O)n2)cc1` [Example 52, 6-Chloro-3-(((R)-1-(6-((S)-4-(4-(methoxy(methyl)carbamoyl)benzyl)-2-oxooxazolidin-3-yl)-4-methylpyridin-2-yl)ethyl)amino)picolinic acid], under setting [2], the IC50 fell in the range of 100 to 1000 nM.

On to `Cc1cc(C(C)Nc2ccc(C#N)nc2C(=O)O)nc(N2C(=O)OC[C@@H]2Cc2ccccc2)c1` (stereo partly drawn) [Example 19, 3-((1-(6-((S)-4-Benzyl-2-oxooxazolidin-3-yl)-4-methylpyridin-2-yl)ethyl)amino)-6-cyanopicolinic acid], for which the IC50 under setting [2] lay within 1000 to 10000 nM.

On to `Cc1cc([C@@H](C)Nc2ccc(Cl)nc2C(=O)O)nc(N2C(=O)OC[C@]2(C)Cc2ccccc2)c1` [Example 54, 3-(((R)-1-(6-((S)-4-Benzyl-4-methyl-2-oxooxazolidin-3-yl)-4-methylpyridin-2-yl)ethyl)amino)-6-chloropicolinic acid], for which the IC50 under setting [2] was 100 to 1000 nM.

In the case of `Cc1cc([C@@H](C)Nc2ccc(Cl)nc2C(=O)O)nc(N2C(=O)OC[C@@H]2Cc2cc(C)ncc2F)c1` [Example 30, 6-Chloro-3-(((R)-1-(6-((S)-4-((5-fluoro-2-methylpyridin-4-yl)methyl)-2-oxooxazolidin-3-yl)-4-methylpyridin-2-yl)ethyl)amino)picolinic acid], under setting [2], the IC50 lay within 100 to 1000 nM.

Consider `Cc1cc([C@@H](C)Nc2ccc(Cl)nc2C(=O)O)cc(N2C(=O)OC[C@@H]2Cc2ccc(Br)cc2)c1` [Example 9, 3-(((R)-1-(3-((S)-4-(4-Bromobenzyl)-2-oxooxazolidin-3-yl)-5-methylphenyl)ethyl)amino)-6-chloropicolinic acid], for which the IC50 under setting [2] lay within 1000 to 10000 nM.

On to `Cc1cc([C@@H](C)Nc2ccc(Cl)nc2C(=O)O)nc(N2C(=O)OC[C@@H]2Cc2cccn3ccnc23)c1` [Example 44, 6-Chloro-3-(((R)-1-(6-((S)-4-(imidazo[1,2-α]pyridin-8-ylmethyl)-2-oxooxazolidin-3-yl)-4-methylpyridin-2-yl)ethyl)amino)picolinic acid], for which, under setting [1], the IC50 was in the range of 100 to 1000 nM.

On to `COc1ccc(NC(C)c2cc(C)cc(N3C(=O)OC[C@@H]3Cc3ccccc3)n2)c(C(=O)O)n1` (single isomer, unassigned) [Example 16], for which, under setting [2], the IC50 was in the range of 100 to 1000 nM.

In the case of `CC(Nc1ccc(Cl)nc1C(=O)O)c1cc(Cl)cc(N2C(=O)OC[C@@H]2Cc2ccccc2)c1` (stereo partly drawn) [Example 6, 3-((1-(3-((S)-4-Benzyl-2-oxooxazolidin-3-yl)-5-chlorophenyl)ethyl)amino)-6-chloropicolinic acid], the IC50 under setting [2] was 100 to 1000 nM.

As to `Cc1cc(C(C)Nc2ccccc2C(=O)O)nc(N2C(=O)OC[C@@H]2Cc2ccccc2)c1` (stereo partly drawn) [Example 17, 2-((1-(6-((S)-4-Benzyl-2-oxooxazolidin-3-yl)-4-methylpyridin-2-yl)ethyl)amino)benzoic acid], under setting [2], the IC50 is 1000 to 10000 nM.

The values above are taken from patent US20250059175A1, “Mutant Pi3k-Alpha Inhibitors And Their Use As Pharmaceuticals” (Prelude Therapeutics Incorporated, priority 2023, published 2025).
